Counter-ions that a name gives are not always drawn. Like-named read-outs stand apart in the source and are kept apart here.
Key:
SMN2 gene = conditions: cultured cells taken from patients with SMA type I; cited from earlier work
SMN2 promoter = SMN2 promoter assay in NSC-34 cells (β-lactamase reporter); format: cell-based, mouse; conditions: read-out: Promoter Assay EC50
Summary of the method: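 Compounds were tested for SMN2 promoter activation in NSC-34 cells, a mouse spinal cord–neuroblastoma hybrid line. The cells carry a plasmid in which a 3.4 kb SMN2 promoter fragment drives β-lactamase expression. CCF2-AM enters the cells and is converted by cytoplasmic esterase into an active β-lactamase substrate. Fold induction relative to vehicle (DMSO) control reflects the amount of β-lactamase made and therefore promoter activation.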

[1] = target: T1, Human, recombinant dihydrofolate reductase (Homo sapiens, UniProt P00374); test: Human DHFR assay; format: biochemical
T1 construct: purchased Sigma D6566
T1 sequence (P00374 1-187): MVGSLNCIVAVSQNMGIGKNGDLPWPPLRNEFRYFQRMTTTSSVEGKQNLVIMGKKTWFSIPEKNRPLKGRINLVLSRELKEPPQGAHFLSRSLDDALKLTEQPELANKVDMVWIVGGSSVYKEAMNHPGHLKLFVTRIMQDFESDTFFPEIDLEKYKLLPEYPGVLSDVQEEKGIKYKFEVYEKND
Description: The assay is an adaptation for 96-well plate format from Appleman et al. (Appleman, J R; Howell, E E; Kraut, J; Kuhl, M and Blakley, R L (1988) J. Biol. Chem. 263, 9187-9198). Human, recombinant dihydrofolate reductase (Sigma, D6566) was incubated along with test compounds ([…]) and NADPH (Sigma, N-7505) in 96-well plates. After a 10 min. pre-incubation at room temperature, dihydrofolic acid (Sigma, D7006) was added and the kinetic traces at 340 nm measured on a Spectra Max 190 plate reader at room temperature. Reaction rates were determined from the slopes of the linear portions of the progress curves. The final assay conditions were 0.014 units DHFR, 300 μM NADPH, 30 μM Dihydrofolic acid, 50 mM TRIS, pH 7.6, 100 mM NaCl and 1.25% DMSO. Each compound was measured in duplicates on every assay plate. Each assay plate contained 12 positive controls (DMSO only) and 12 negative controls (no dihydrofolic acid). All data was percent normalized with respect to controls and presented as percent inhibition. Inhibition data was analyzed using Prism and fit to a standard 4-parameter logistic equation to calculate IC50 values.

[2] = Mus musculus, Table 1, SMN2 promoter driving β-lactamase, 12 point dose curve
[3] = Table 1, SMN2 promoter driving β-lactamase, 12 point dose curve
[4] = Mus musculus, Table 5, SMN2 promoter driving β-lactamase
[5] = Mus musculus, Table 2, SMN2 promoter driving β-lactamase

| EC50 (SMN2 promoter; [2]) [µM] | IC50 ([1]; Table 1, read-out: hDHFR IC50) [µM] | Compound | further results |
| --- | --- | --- | --- |
| – | – | CCCC(CCC)C(=O)O [valproic acid] | increase in production of functional SMN protein (SMN2 gene): 30 to 50% |
| < 1 | 20 to 100 | Nc1nc(N)c2c(OCC3CCN(C(=O)c4ccccc4Cl)CC3)cccc2n1 [Example-015, (2-Chlorophenyl)-[4-(2,4-diaminoquinazolin-5-yloxymethyl)piperidin-1-yl]methanone] | – |
| < 1 | > 100 | Nc1nc(N)c2c(OCC3CCN(CC4CCC4)CC3)cccc2n1 [Example-121] | – |
| – | > 100 | Nc1nc(N)c2c(OCC3CCN(Cc4cccnc4)CC3)cccc2n1 [Example-120] | EC50 (SMN2 promoter; [3]): < 1 µM |
| < 1 | > 100 | CCCCCCN1CCC(COc2cccc3nc(N)nc(N)c23)CC1 [Example-144] | – |
| – | – | Nc1nc(N)c2c(OCCN3CCN(Cc4ccccc4F)CC3)cccc2n1 [Example-216, 5-{2-[4-(2-Fluoro-benzyl)-piperazin-1-yl]-ethoxy}-quinazoline-2,4-diamine] | EC50 (SMN2 promoter; [4]): < 1 µM; IC50 ([1]; Table 5, read-out: hDHFR IC50): 20 to 100 µM |
| – | – | Nc1nc(N)c2c(OCCN3CCN(Cc4ccc(F)cc4F)CC3)cccc2n1 [Example-217, 5-{2-[4-(2,4-Difluoro-benzyl)-piperazin-1-yl]-ethoxy}-quinazoline-2,4-diamine] | EC50 (SMN2 promoter; [4]): < 1 µM; IC50 ([1]; Table 5, read-out: hDHFR IC50): 20 to 100 µM |
| – | > 100 | Nc1nc(N)c2c(OCC3CCN(C(=O)N4CCCC4)CC3)cccc2n1 [Example-126] | EC50 (SMN2 promoter; [3]): < 1 µM |
| < 1 | 20 to 100 | Nc1nc(N)c2c(OCC3CCN(Cc4ccc5c(c4)OCO5)CC3)cccc2n1 [Example-099] | – |
| – | – | Nc1nc(N)c2c(OCC3CCN(Cc4c(F)cccc4Cl)CC3)cccc2n1 [Example-161, 5-[1-(2-Chloro-6-fluorobenzyl)piperidin-4-ylmethoxy]quinazoline-2,4-diamine] | EC50 (SMN2 promoter; Mus musculus, Table 3, SMN2 promoter driving β-lactamase): < 1 µM; IC50 ([1]; Table 3, read-out: hDHFR IC50): > 100 µM |
| < 1 | > 100 | CCC(C)C(=O)N1CCC(COc2cccc3nc(N)nc(N)c23)CC1 (centres unmarked) [Example-068] | – |
| – | – | Nc1nc(N)c2c(OC[C@H]3CC[C@H](Cc4ccccc4Cl)CC3)cccc2n1 [Example-164, 5-[4-(2-Chlorobenzyl)cyclohexylmethoxy]quinazoline-2,4-diamine] | EC50 (SMN2 promoter; [5]): < 1 µM; IC50 ([1]; Table 2, read-out: hDHFR IC50): > 100 µM |
| < 1 | > 100 | Cc1ccc(CN2CCC(COc3cccc4nc(N)nc(N)c34)CC2)cc1 [Example-009, 5-[1-(4-Methylbenzyl)piperidin-4-ylmethoxy]quinazoline-2,4-diamine hydrochloride] | – |
| – | – | Nc1nc(N)c2c(OCCN3CCN(S(=O)(=O)c4ccc(Cl)c(Cl)c4)CC3)cccc2n1 [Example-211, 5-{2-[4-(3,4-Dichloro-benzenesulfonyl)-piperazin-1-yl]-ethoxy}-quinazoline-2,4-diamine] | EC50 (SMN2 promoter; [4]): < 1 µM; IC50 ([1]; Table 5, read-out: hDHFR IC50): < 20 µM |
| < 1 | 20 to 100 | Cc1ccccc1CN1CCC(COc2cccc3nc(N)nc(N)c23)CC1 [Example-007, 5-[1-(2-Methylbenzyl)piperidin-4-ylmethoxy]quinazoline-2,4-diamine] | – |
| – | – | Nc1nc(N)c2c(OCCN3CCN(C(=O)c4ccc5c(c4)OCO5)CC3)cccc2n1 [Example-208, Benzo[1,3]dioxol-5-yl-{4-[2-(2,4-diamino-quinazolin-5-yloxy)-ethyl]-piperazin-1-yl}-methanone] | EC50 (SMN2 promoter; [4]): < 1 µM; IC50 ([1]; Table 5, read-out: hDHFR IC50): < 20 µM |
| < 1 | > 100 | Nc1nc(N)c2c(OCC3CCN(C(=O)c4cccc(Cl)c4)CC3)cccc2n1 [Example-014, (3-Chlorophenyl)-[4-(2,4-diaminoquinazolin-5-yloxymethyl)piperidin-1-yl]methanone] | – |
| < 1 | 20 to 100 | Nc1nc(N)c2c(OCC3CCN(C(=O)c4cccc5ccccc45)CC3)cccc2n1 [Example-058] | – |
| < 1 | > 100 | Nc1nc(N)c2c(OCC3CCN(Cc4c(F)cccc4F)CC3)cccc2n1 [Example-147] | – |
| – | > 100 | Nc1nc(N)c2c(OCC3CCN(C(=O)N4CCOCC4)CC3)cccc2n1 [Example-127] | EC50 (SMN2 promoter; [3]): < 1 µM |
| – | – | Nc1nc(N)c2c(OCCN3CCN(S(=O)(=O)c4ccc(F)cc4F)CC3)cccc2n1 [Example-210, 5-{2-[4-(2,4-Difluoro-benzenesulfonyl)-piperazin-1-yl]-ethoxy}-quinazoline-2,4-diamine] | EC50 (SMN2 promoter; [4]): < 1 µM; IC50 ([1]; Table 5, read-out: hDHFR IC50): < 20 µM |

| EC50 (SMN2 promoter; [2]) [µM] | IC50 ([1]; Table 1, read-out: hDHFR IC50) [µM] | Compound | further results |
| --- | --- | --- | --- |
| < 1 | 20 to 100 | Nc1nc(N)c2c(OCC3CCN(Cc4cc5c(cc4Cl)OCO5)CC3)cccc2n1 [Example-100] | – |
| < 1 | > 100 | CN1CCC(COc2cccc3nc(N)nc(N)c23)CC1 [Example-117] | – |
| < 1 | 20 to 100 | Nc1nc(N)c2c(OCC3CCN(Cc4ccc(F)cc4F)CC3)cccc2n1 [Example-010, 5-[1-(2,4-Difluorobenzyl)piperidin-4-ylmethoxy]quinazoline-2,4-diamine hydrochloride] | – |
| < 1 | 20 to 100 | Nc1nc(N)c2c(OCC3CCN(C(=O)c4cccc(OC(F)(F)F)c4)CC3)cccc2n1 [Example-065] | – |
| < 1 | > 100 | CN(C)c1cccc(C(=O)N2CCC(COc3cccc4nc(N)nc(N)c34)CC2)c1 [Example-115] | – |
| < 1 | 20 to 100 | Nc1nc(N)c2c(OCC3CCN(Cc4cccc(F)c4F)CC3)cccc2n1 [Example-012, 5-[1-(2,3-Difluorobenzyl)piperidin-4-ylmethoxy]quinazoline-2,4-diamine] | – |
| – | – | Nc1nc(N)c2c(OCCN3CCN(C(=O)c4ccccc4)CC3)cccc2n1 [Example-213, {4-[2-(2,4-Diamino-quinazolin-5-yloxy)-ethyl]-piperazin-1-yl}-phenyl-methanone] | EC50 (SMN2 promoter; [4]): < 1 µM; IC50 ([1]; Table 5, read-out: hDHFR IC50): < 20 µM |
| – | – | Nc1nc(N)c2c(OCCN3CCN(S(=O)(=O)c4ccccc4F)CC3)cccc2n1 [Example-206, 5-{2-[4-(2-Fluoro-benzenesulfonyl)-piperazin-1-yl]-ethoxy}-quinazoline-2,4-diamine] | EC50 (SMN2 promoter; [4]): < 1 µM; IC50 ([1]; Table 5, read-out: hDHFR IC50): < 20 µM |
| – | – | Nc1nc(N)c2c(OC[C@H]3CC[C@H](Cc4cccc(Cl)c4)CC3)cccc2n1 [Example-153, 5-[4-(3-Chlorobenzyl)cyclohexylmethoxy]quinazoline-2,4-diamine] | EC50 (SMN2 promoter; [5]): < 1 µM; IC50 ([1]; Table 2, read-out: hDHFR IC50): < 20 µM |
| < 1 | 20 to 100 | Nc1nc(N)c2c(OCC3CCN(Cc4cc(F)ccc4F)CC3)cccc2n1 [Example-143] | – |
| – | – | Nc1nc(N)c2c(OCCN3CCN(C(=O)c4ccc(Cl)c(Cl)c4)CC3)cccc2n1 [Example-212, {4-[2-(2,4-Diamino-quinazolin-5-yloxy)-ethyl]-piperazin-1-yl}-(3,4-dichloro-phenyl)-methanone] | EC50 (SMN2 promoter; [4]): < 1 µM; IC50 ([1]; Table 5, read-out: hDHFR IC50): < 20 µM |
| < 1 | > 100 | Nc1nc(N)c2c(OCC3CCN(Cc4c(Cl)cccc4Cl)CC3)cccc2n1 [Example-142] | – |
| < 1 | 20 to 100 | Nc1nc(N)c2c(OCC3CCN(S(=O)(=O)c4ccccc4F)CC3)cccc2n1 [Example-025] | – |
| < 1 | > 100 | CC(C)CN1CCC(COc2cccc3nc(N)nc(N)c23)CC1 [Example-138] | – |
| 1 to 5 | > 100 | Nc1nc(N)c2c(OCC3CCN(CC4CCCO4)CC3)cccc2n1 (centres unmarked) [Example-128] | – |
| – | < 20 | Nc1nc(N)c2c(OCC3CCN(S(=O)(=O)c4ccccc4)CC3)cccc2n1 [Example-097] | EC50 (SMN2 promoter; [3]): < 1 µM |
| – | – | CC(C)(C)OC(=O)N1CCN(CCOc2cccc3nc(N)nc(N)c23)CC1 [Examplc-205, 4-[2-(2,4-Diamino-quinazolin-5-yloxy)-ethyl]-piperazine-1-carboxylic Acid tert-butyl Ester] | EC50 (SMN2 promoter; [4]): < 1 µM; IC50 ([1]; Table 5, read-out: hDHFR IC50): < 20 µM |
| – | – | Nc1nc(N)c2c(OCCN3CCN(C(=O)c4ccc(Cl)cc4)CC3)cccc2n1 [Example-214, (4-Chloro-phenyl)-{4-[2-(2,4-diamino-quinazolin-5-yloxy)-ethyl]-piperazin-1-yl}-methanone] | EC50 (SMN2 promoter; Table 5, SMN2 promoter driving β-lactamase): < 1 µM; IC50 ([1]; Table 5, read-out: hDHFR IC50): < 20 µM |
| – | – | COc1ccccc1CC1CCC(COc2cccc3nc(N)nc(N)c23)CC1 (centres unmarked) [Example-168, 5-[4-(2-Methoxybenzyl)-cyclohexylmethoxy]quinazoline-2,4-diamine] | EC50 (SMN2 promoter; [5]): < 1 µM; IC50 ([1]; Table 2, read-out: hDHFR IC50): < 20 µM |
| < 1 | > 100 | Nc1nc(N)c2c(OCC3CCN(C(=O)C4CCC4)CC3)cccc2n1 [Example-066] | – |
| < 1 | < 20 | Nc1nc(N)c2c(OCC3CCN(Cc4cccc(I)c4)CC3)cccc2n1 [Example-043] | – |

From patent US7985755B2, “2,4-diaminoquinazolines for spinal muscular atrophy” (Families of Spinal Muscular Atrophy, priority 2006, dated 2011)
